Test results reported in article PMC8637440, “Structural Modifications Yield Novel Insights Into the Intriguing Pharmacodynamic Potential of Anti-inflammatory Nitro-Fatty Acids” (Frontiers in Pharmacology, 2021).

These molecules were tested against T1, 12-LO (Homo sapiens, UniProt P18054) (assay: 12-HETE formation in intact PMNL preparations, A23187 + 20 µM AA). Conditions: 15 min preincubation, A23187 2.5 µM + 20 µM AA, n.i. = no inhibition observed.
T1 construct: endogenous in cells; host or cells: platelet impurities in human PMNL preparations
T1 sequence (P18054 1-663): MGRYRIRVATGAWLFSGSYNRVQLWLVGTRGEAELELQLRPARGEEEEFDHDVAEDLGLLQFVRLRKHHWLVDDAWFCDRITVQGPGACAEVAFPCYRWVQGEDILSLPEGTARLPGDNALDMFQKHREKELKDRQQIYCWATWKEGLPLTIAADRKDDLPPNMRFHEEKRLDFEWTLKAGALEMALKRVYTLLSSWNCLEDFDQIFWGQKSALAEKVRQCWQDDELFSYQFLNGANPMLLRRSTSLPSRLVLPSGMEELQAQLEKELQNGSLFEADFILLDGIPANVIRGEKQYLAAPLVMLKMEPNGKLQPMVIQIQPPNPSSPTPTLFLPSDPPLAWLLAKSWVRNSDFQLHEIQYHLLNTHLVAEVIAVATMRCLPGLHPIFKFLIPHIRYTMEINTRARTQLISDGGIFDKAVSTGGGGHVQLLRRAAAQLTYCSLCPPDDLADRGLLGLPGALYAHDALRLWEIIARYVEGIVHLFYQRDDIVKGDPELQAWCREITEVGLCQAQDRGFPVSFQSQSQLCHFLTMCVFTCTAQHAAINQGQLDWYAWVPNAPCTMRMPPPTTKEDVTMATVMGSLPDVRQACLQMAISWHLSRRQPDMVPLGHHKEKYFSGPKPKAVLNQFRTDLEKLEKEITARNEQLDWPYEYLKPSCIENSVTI
Assay type: cell-based
Protocol: Buffy coats from different donors of different blood types were commercially obtained from DRK Blutspendedienst Baden-Württemberg Institute Frankfurt. Donors have given their written consent. […] Following separation, the supernatant was transferred very gently to new 50-ml tubes containing lymphocyte separation medium (LSM) and centrifuged for 10 min at 800 ×g at RT with the centrifuge brake turned off. Afterwards, the supernatant was decanted carefully to discard the platelets and monocytes. The PMNL were washed with 1× PBS before the residual erythrocytes were lysed in two cycles: the cell pellet was resuspended with 10 ml H2O and vortexed for 45 s, and lysis was stopped with 40 ml 1 × PBS. After 10-min centrifugation at 200 ×g at RT, the cycle was repeated once. The supernatant was aspirated, the cell pellet resuspended in 5 ml PBS/glucose and initially separated PMNL preparations with different blood types were finally pooled to gain a sufficient number of cells. […] The enzyme was diluted in PBS/EDTA/ATP, transferred into 5-ml glass tubes, and stored on ice. […] The reaction was stopped by placing the glass tubes on ice. The supernatants were transferred to 1.5 ml reaction tubes and stored at −80°C before LC-MS (liquid chromatography and mass spectrometry) analysis of LTB4 and HETEs as described in 2.6 at the Institute of Pharmacology, Goethe University, University Hospital, Germany. The lipid mediators LTB4, hydroxyeicosatetraenoic acids, 5(S)-HETE, 12(S)-HETE, 15(S)-HETE and 20-HETE were analyzed using liquid chromatography tandem-mass spectroscopy (LC-MS/MS). The LC-MS/MS system consisted of a 5500 QTrap mass spectrometer (Sciex, Darmstadt, Germany), operating in negative ESI mode, an Agilent 1200 HPLC system (Agilent, Waldbronn, Germany) and an HTC Pal autosampler (Chromtech, Idstein, Germany). Sample extraction of LTB4 and HETEs were performed using liquid-liquid extraction: 200 µl of the sample were gently mixed with 20 µl of methanol and 20 µl of internal standard solution and extracted twice with 600 µl ethyl acetate. […] Working solutions of all analytes were prepared in methanol containing 0.1% BHT. The calibration standards were prepared by further dilution of the working standards. […] The residues were reconstituted in 50 µl of methanol:water:BHT (50:50:10^−4, v/v/v) prior to injection into the LC-MS/MS system. Chromatographic separation was achieved using a Gemini NX C18 column (150 mm × 2 mm ID, 5 µm, Phenomenex, Aschaffenburg, Germany) with a precolumn of the same material. A linear gradient was employed at a flow rate of 0.5 ml/min and a total run time of 17.5 min. Mobile phases were A water:ammonia (100:0.05, v/v) and B acetonitrile:ammonia (100:0.05, v/v). […] All data were acquired using Analyst software v1.6.2 and quantitation was performed by MultiQuant software v3.0 (both Sciex, Darmstadt, Germany) using the internal standard method (isotope-dilution mass spectrometry). Calibration curves were calculated by linear regression with 1/x.

Structure (SMILES) | PMNL (20 µM AA) 12-HETE IC50
CCC=C(CCCCCCCC(=O)O)[N+](=O)[O-] [12.9.9, 9-nitro-dodec-9-enoic acid] | n.i.
CCCCC=C(CCCCCCCC(=O)O)[N+](=O)[O-] [14.9.9, 9-nitro-tetradec-9-enoic acid] | n.i.
CCCCCCC=C(CCCCCCCC(=O)O)[N+](=O)[O-] [16.9.9, 9-nitro-hexadec-9-enoic acid] | n.i.
CCCCCCCCCCCCCC=C(CCC(=O)O)[N+](=O)[O-] [18.4.4, 4-nitro-octadec-4-enoic acid] | n.i.
CCCCCCCCCCCCC=C(CCCC(=O)O)[N+](=O)[O-] [18.5.5, 5-nitro-octadec-5-enoic acid] | n.i.
CCCCCCCCCCCC=C(CCCCC(=O)O)[N+](=O)[O-] [18.6.6, 6-nitro-octadec-6-enoic acid] | n.i.
CCCCCCCCCCCC(=CCCCCC(=O)O)[N+](=O)[O-] [18.6.7, 7-nitro-octadec-6-enoic acid] | n.i.
CCCCCCCCCCC=C(CCCCCC(=O)O)[N+](=O)[O-] [18.7.7, 7-nitro-octadec-7-enoic acid] | n.i.
CCCCCCCCCC=C(CCCCCCC(=O)O)[N+](=O)[O-] [18.8.8, 8-nitro-octadec-8-enoic acid] | n.i.
CCCCCCCCCC(=CCCCCCCC(=O)O)[N+](=O)[O-] [18.8.9, 9-nitro-octadec-8-enoic acid] | n.i.
CCCCCCCCC=C(CCCCCCCC(=O)O)[N+](=O)[O-] [18.9.9, 9-nitro-octadec-9-enoic acid] | n.i.
CCCCCCCCC(=CCCCCCCCC(=O)O)[N+](=O)[O-] [18.9.10, 10-nitro-octadec-9-enoic acid] | n.i.
CCCCCCCC=C(CCCCCCCCC(=O)O)[N+](=O)[O-] [18.10.10, 10-nitro-octadec-10-enoic acid] | n.i.
CCCCCCC=C(CCCCCCCCCC(=O)O)[N+](=O)[O-] [18.11.11, 11-nitro-octadec-11-enoic acid] | n.i.
CCCCCCCCCCC=C(CCCCCCCC(=O)O)[N+](=O)[O-] [20.9.9, 9-nitro-eicos-9-enoic acid] | n.i.
CCCCCCCC/C=C\CCCCCCCC(=O)O [OA, oleic acid, reference compound] | not affected and n.i.
